Assay results taken from patent US20060276465A1, “1,2-di(cyclic) substituted benzene compounds” (Eisai R&D Management Co., Ltd., priority 2003, published 2006).
pIC50: −log10 of the molar value. Where a name gives a salt, the structure may show the parent alone.

What was measured:
[1] = test system: colon-infiltrating neutrophils (myeloperoxidase enzyme activity); assay: Oxazolone-induced colon neutrophil infiltration model (colon myeloperoxidase activity); assay type: in vivo; conditions: myeloperoxidase enzyme activity inhibitory rate vs oxazolone control group; 30 mg/kg orally 30 minutes prior to intrarectal challenge; colon 4 hours after challenge; male Balb/c mice
Description: The “di(C1-6 alkyl)amino” of Group D1 may be either symmetric or asymmetric, and as examples there may be mentioned straight-chain or branched-chain groups such as dimethylamino, methylethylamino, diethylamino, methylpropylamino, ethylpropylamino, dipropylamino, diisopropylamino, dibutylamino, diisobutylamino, di(s-butyl)amino, di(t-butyl)amino, methylpentylamino, dipentylamino, diisopentylamino, di(2-methylbutyl)amino, di(neopentyl)amino, di(1-ethylpropyl)amino, dihexylamino, methylisohexylamino, diisohexylamino, di(4-methylpentyl)amino, di(3-methylpentyl)amino, di(2-methylpentyl)amino, di(1-methylpentyl)amino, di(3,3-dimethylbutyl)amino, di(2,2-dimethylbutyl)amino, di(1,1-dimethylbutyl)amino, di(1,2-dimethylbutyl)amino, di(1,3-dimethylbutyl)amino, di(2,3-dimethylbutyl)amino, di(1-ethylbutyl)amino or di(2-ethylbutyl)amino, among which dimethylamino, methylethylamino or diethylamino is preferred, and dimethylamino is particularly preferred.
The “C2-7 alkylcarbonylamino” of Group D1 is an amino group having the aforementioned “C2-7 alkylcarbonyl” bonded thereto, and as examples there may be mentioned straight-chain or branched-chain groups such as acetylamino, ethylcarbonylamino, n-propylcarbonylamino, isopropylcarbonylamino, n-butylcarbonylamino, isobutylcarbonylamino, s-butylcarbonylamino, t-butylcarbonylamino, pentylcarbonylamino, isopentylcarbonylamino, 2-methylbutylcarbonylamino, neopentylcarbonylamino, 1-ethylpropylcarbonylamino, hexylcarbonylamino, isohexylcarbonylamino, 4-methylpentylcarbonylamino, 3-methylpentylcarbonylamino, 2-methylpentylcarbonylamino, 1-methylpentylcarbonylamino, 3,3-dimethylbutylcarbonylamino, 2,2-dimethylbutylcarbonylamino, 1,1-dimethylbutylcarbonylamino, 1,2-dimethylbutylcarbonylamino, 1,3-dimethylbutylcarbonylamino, 2,3-dimethylbutylcarbonylamino, 1-ethylbutylcarbonylamino or 2-ethylbutylcarbonylamino, among which amino groups having C2-5 alkylcarbonyl bonded thereto are preferred, and acetylamino or ethylcarbonylamino is particularly preferred.
As examples of the “3- to 8-membered cycloalkyl” of the “3- to 8-membered cycloalkyl optionally substituted with a substituent selected from Group H1” of Group D1 and the “3- to 8-membered cycloalkyl” of Group D2 (mentioned below) there may be mentioned the same ones listed above, among which cyclopropyl, cyclobutyl, cyclopentyl or cyclohexyl is preferred, cyclopropyl or cyclobutyl is more preferred, and cyclopropyl is most preferred.
As exampled of the “C2-7 alkoxycarbonyl” of Group D1 there may be mentioned the same ones listed above, among which methoxycarbonyl or ethoxycarbonyl is preferred. […]

[2] = test system: Jurkat cells; assay: Jurkat cell adhesion system (adhesion to immobilized human fibronectin, PMA-stimulated); assay type: cell-based; conditions: concentration inhibiting by 50% the PMA-stimulated increase in adhered Jurkat cells on human fibronectin
Description: The “C1-6 haloalkyl” of Group A1 and Group A2 (mentioned below) is aforementioned “C1-6 alkyl” having 1-6 aforementioned “halogen” bonded thereto, as examples there may be mentioned straight-chain or branched-chain alkyl groups such as methyl, ethyl, n-propyl, isopropyl, n-butyl, isobutyl, s-butyl, t-butyl, pentyl, isopentyl, 2-methylbutyl, neopentyl, 1-ethylpropyl, hexyl, isohexyl, 4-methylpentyl, 3-methylpentyl, 2-methylpentyl, 1-methylpentyl, 3,3-dimethylbutyl, 2,2-dimethylbutyl, 1,1-dimethylbutyl, 1,2-dimethylbutyl, 1,3-dimethylbutyl, 2,3-dimethylbutyl, 1-ethylbutyl or 2-ethylbutyl, having fluorine or chlorine bonded thereto, among which C1-4 alkyl having 1 to 3 fluorine or chlorine bonded thereto is preferred, and trifluoromethyl is particularly preferred.
As examples of the “C2-7 alkylene”, where C2-7 alkylene is permissible only in the case that a spiro union is formed together with the substituted 5- to 10-membered cycloalkyl or the substituted 5- to 10-membered cycloalkenyl, of Group A1 and Group A2 (mentioned below), there may be mentioned straight-chain or branched-chain groups such as 1,2-ethylene, trimethylene, propylene, ethylethylene, tetramethylene, pentamethylene, hexamethylene or heptamethylene, among which 1,2-ethylene, trimethylene, tetramethylene or pentamethylene is preferred, and 1,2-ethylene, tetramethylene or pentamethylene is particularly preferred.
As examples of the “halogen” of Group W1 there may be mentioned the same ones listed above, among which fluorine or chlorine is preferred.
As examples of the “C1-6 alkyl” of Group W1 there may be mentioned the same ones listed above, among which C1-4 groups are preferred, and methyl or ethyl is particularly preferred.
The “C2-7 alkoxyalkyl” of Group W1 is aforementioned “C1-6 alkyl” having the aforementioned “C1-6 alkoxy” bonded thereto, of 2 to 7 carbon (total number of carbon), and as examples there may be mentioned methoxymethyl, methoxyethyl, ethoxyethyl, methoxypropyl or propoxyethyl, among which methoxymethyl is preferred.
As examples of the “C1-6 alkoxy” of the “C1-6 alkoxy optionally substituted with a substituent selected from Group T1” of Group W1 there may be mentioned the same ones listed above, among which C1-4 groups are preferred, and methoxy, ethoxy, isopropoxy or propoxy is particularly preferred.

[3] = test system: human peripheral blood neutrophils; assay: Human peripheral blood neutrophil adhesion system (adhesion to HUVEC immobilized plate, PMA-stimulated); assay type: cell-based; conditions: concentration inhibiting by 50% the PMA-stimulated increase in neutrophils adhered to HUVEC
Description: As examples of the “C2-7 alkylcarbonyl” of Group W1 there may be mentioned the same ones listed above, among which C2-5 groups are preferred, and acetyl is particularly preferred.
As examples of the “C1-6 alkyl” for R^6X and R^7X there may be mentioned the same ones listed above.
As examples of the “halogen” of Group C1 there may be mentioned the same ones listed above, among which bromine, fluorine or chlorine is preferred.
As examples of the “C1-6 alkyl” of Group C1 there may be mentioned the same ones listed above, among which C1-4 groups are preferred, and methyl is particularly preferred.
As examples of the “C1-6 alkoxy” of Group C1 there may be mentioned the same ones listed above, among which C1-4 groups are preferred, and methoxy or ethoxy is particularly preferred.
As examples of the “halogen” of Group D1 and Group D2 (mentioned below) there may be mentioned the same ones listed above, among which fluorine or chlorine is preferred.
As examples of the “C1-6 alkoxy” of Group D1 and Group D2 (mentioned below) there may be mentioned the same ones listed above, among which C1-4 groups are preferred, and methoxy or ethoxy is particularly preferred.
The “C1-6 alkylthio” of Group D1 is a thio group having the aforementioned “C1-6 alkyl” bonded thereto, and as examples there may be mentioned straight-chain or branched-chain groups such as methylthio, ethylthio, propylthio, isopropylthio, […], isobutylthio, s-butylthio, t-butylthio, pentylthio, isopentylthio, 2-methylbutylthio, neopentylthio, 1-ethylpropylthio, hexylthio, isohexylthio, 4-methylpentylthio, 3-methylpentylthio, 2-methylpentylthio, 1-methylpentylthio, 3,3-dimethylbutylthio, 2,2-dimethylbutylthio, 1,1-dimethylbutylthio, 1,2-dimethylbutylthio, 1,3-dimethylbutylthio, 2,3-dimethylbutylthio, 1-ethylbutylthio or 2-ethylbutylthio, among which C1-4 groups are preferred, and methylthio or ethylthio is particularly preferred.
As examples of the “C1-6 alkylsulfonyl” of Group D1 there may be mentioned the same ones listed above, among which C1-4 groups are preferred, and methylsulfonyl or ethylsulfonyl is particularly preferred.
The “C1-6 alkylsulfinyl” of Group D1 is a sulfinyl group having the aforementioned “C1-6 alkyl” bonded thereto, as examples there may be mentioned straight-chain or branched-chain groups such as methylsulfinyl, ethylsulfinyl, propylsulfinyl, isopropylsulfinyl, […], isobutylsulfinyl, s-butylsulfinyl, t-butylsulfinyl, pentylsulfinyl, isopentylsulfinyl, 2-methylbutylsulfinyl, neopentylsulfinyl, 1-ethylpropylsulfinyl, hexylsulfinyl, isohexylsulfinyl, 4-methylpentylsulfinyl, 3-methylpentylsulfinyl, 2-methylpentylsulfinyl, 1-methylpentylsulfinyl, 3,3-dimethylbutylsulfinyl, 2,2-dimethylbutylsulfinyl, 1,1-dimethylbutylsulfinyl, 1,2-dimethylbutylsulfinyl, 1,3-dimethylbutylsulfinyl, 2,3-dimethylbutylsulfinyl, 1-ethylbutylsulfinyl or 2-ethylbutylsulfinyl, among which C1-4 groups are preferred, and methylsulfinyl or ethylsulfinyl is particularly preferred.

pIC50 [2] | pIC50 [3] | Structure (SMILES) | Ihibitory Rate (%) [1] [%]
5.54 | 4.96 | CCCCN1CCN(c2c(NC3CCOCC3)cccc2C2=CCC(C(C)(C)C)CC2)CC1.Cl (racemic) [Example 5, [3-(4-t-Butylcyclohex-1-enyl)-2-(4-butylpiperazin-1-yl)phenyl](tetrahydropyran-4-yl)amine hydrochloride] | 3.0
5.47 | 4.78 | CCCN1CCN(c2cc3c(cc2C2=CCC(C(C)(C)C)CC2)N(C)CCO3)CC1 (racemic) [Example 8, 6-(4-t-Butylcyclohex-1-enyl)-4-methyl-7-(4-propylpiperazin-1-yl)-3,4-dihydro-2H-benzo[1,4]oxazine hydrochloride] | 
5.54 | 4.93 | CCCCN1CCN(c2cc3c(cc2C2CCC(C(C)(C)C)CC2)N(C)C(=O)CO3)CC1 (stereo not drawn) [Example 6, 6-(4-t-Butylcyclohexyl)-7-(4-butylpiperazin-1-yl)-4-methyl-4H-benzo[1,4]oxazin-3-one] | 48.0
5.31 | 4.76 | CCCCN1CCN(c2cc3c(cc2C2CCC(C(C)(C)C)CC2)N(C)CCO3)CC1.Cl (stereo not drawn) [Example 7, 6-(4-t-Butylcyclohexyl)-7-(4-butylpiperazin-1-yl)-4-methyl-3,4-dihydro-2H-benzo[1,4]oxazine hydrochloride] | 24.0
5.48 | 5.11 | CCCCN1CCN(c2cc(OCCOC)ccc2C2CC(C)(C)CC(C)(C)C2)CC1 [Example 10, 1-Butyl-4-[5-(2-methoxyethoxy)-2-(3,3,5,5-tetramethylcyclohexyl)phenyl]piperazine hydrochloride] | 
4.83 | 4.90 | CCCN1CCN(c2ccc(OCCOC)cc2C2CC(C)(C)CC(C)(C)C2)CC1 [Example 12, 1-[4-(2-Methoxyethoxy)-2-(3,3,5,5-tetramethylcyclohexyl)phenyl]-4-propylpiperazine hydrochloride] | 
5.42 | 4.66 | CCCCN1CCN(c2cc3c(cc2C2=CC(C)(C)CC(C)(C)C2)OCO3)CC1 [Example 13, 1-Butyl-4-[6-(3,3,5,5-tetramethylcyclohex-1-enyl)benzo [1,3]dioxol-5-yl]piperazine hydrochloride] | 
5.15 | 4.65 | CCCCN1CCN(c2cc3c(cc2C2CC(C)(C)CC(C)(C)C2)OCO3)CC1 [Example 14, 1-Butyl-4-[6-(3,3,5,5-tetramethylcyclohexyl)benzo[1,3]dioxol-5-yl]piperazine hydrochloride] | 
5.33 | 4.93 | CCCCN1CCN(c2cc3c(cc2C2CC(C)(C)CC(C)(C)C2)OCCO3)CC1 [Example 15, 1-Butyl-4-[7-(3,3,55-tetramethylcyclohexyl)-2,3-dihydrobenzo[1,4]dioxin-6-yl]piperazine hydrochloride] | 
5.40 | 5.22 | CCCCN1CCN(c2ccc(N3CCC4(CC3)OCCO4)cc2C2CCC(C(C)(C)C)CC2)CC1.Cl (stereo not drawn) [Example 134, 8-{3-(4-t-Butylcyclohexyl)-4-(4-butylpiperazin-1-ylphenyl}-1,4-dioxa-8-aza-spiro [4.5]decane hydrochloride] | 
 |  | CCCCN1CCN(c2ccc(N3CCC4(CC3)OCCO4)cc2C2CCC(C(C)(C)C)CC2)CC1.Cl (stereo not drawn) [Example 134] | 18.0
